Laboratory results: US20090149417A1, “Methods and compositions for the treatment of cancer using benzopyrone-type PARP inhibitors” (priority 2007, published 2009)

What was measured:
[1] = system: eight pancreatic cancer cells; assay: BrdU-ELISA proliferation assay, IIIg alone and with oxaliplatin; assay type: cell-based, human
Experimental: The effect of IIIg alone and in combination with oxaliplatin on the proliferation of eight pancreatic cancer cells is determined using a BrdU-ELISA assay.
Assessment of synergy is performed according to the method described by Chou and Talalay.

Colo357FG = assay: Luciferase-expressing pancreatic cancer orthotopic nude mouse model; assay type: in vivo
Experimental: The therapeutic efficacy of IIIg on tumor growth and survival is evaluated in different luciferase-expressing pancreatic cancer orthotopic nude mouse models using an IVIS100 Imaging System, allowing a quantitative real time monitoring of tumor growth.
Mice are monitored daily for signs of toxicity including weight loss, diarrhea, inactivity, and general appearance.
Three days after the orthotopic implantation of 1.0×10^6 COL0357FG tumor cells in 50 μL of HBSS, when bioluminescence imaging confirmed that tumors are well established, in one experiment, mice are randomly allocated into three groups (n=10 mice per group) to receive one of the following treatments. (a) Vehicle solution for 50 μL of sterile saline; (b) IIIg (25 mg/kg) biweekly i.p.; (c) IIIg (100 mg/kg) biweekly i.p. Treatments are continued for 4 weeks. All mice are weighed weekly and observed for tumor growth. Tumor diameter is assessed with a Vernier caliper, and tumor volume (mm^3) is calculated as d^2×D/2, wherein d and D represent the shortest and longest diameters, respectively. Bulky disease is considered present when tumor burden is prominent in the mouse abdomen (tumor volume, >=2,000 mm^3).
In another experiment, mice are randomly allocated into four groups (n=10 mice per group) to receive one of the following treatments. (a) Vehicle solution for 50 μL of sterile saline; (b) IIIg (200 mg/kg) once weekly i.p.; (c) IIIg (100 mg/kg) biweekly i.p; (d) IIIg (40 mg/kg) once daily i.p. Treatments are continued for 4 weeks. All mice are weighed weekly and observed for tumor growth. Tumor diameter is assessed with a Vernier caliper, and tumor volume (mm^3) is calculated as d^2×D/2, wherein d and D represent the shortest and longest diameters, respectively. Bulky disease is considered present when tumor burden is prominent in the mouse abdomen (tumor volume, >=2,000 mm^3).
In another experiment, mice are randomly allocated into eight groups to receive one of the following treatments via oral or ip administration. (a) Vehicle solution for 50 μL of sterile saline (oral); (b) Gemcitabine (25 mg/kg) biweekly for 4 weeks (ip); (c) IIIg (200 mg/kg) once weekly (oral); (d) IIIg (200 mg/kg) biweekly (oral); (e) IIIg (200 mg/kg) once daily (oral); (f) IIIg (400 mg/kg) once weekly (oral); (g) IIIg (400 mg/kg) biweekly (oral); (h) IIIg (400 mg/kg) once daily (oral). In all treatments, IIIg is given orally. Treatments are continued for 4 weeks. All mice are weighed weekly and observed for tumor growth. Tumor diameter is assessed with a Vernier caliper, and tumor volume (mm^3) is calculated as d^2×D/2, wherein d and D represent the shortest and longest diameters, respectively. Bulky disease is considered present when tumor burden is prominent in the mouse abdomen (tumor volume, >=2,000 mm^3).
When at least 6 of 10 mice in a treatment group presented with bulky disease, the median survival duration for that group is considered to be reached. At the median survival duration of the control group, the tumor growth in mice in all groups is evaluated using the bioluminescence emitted by the tumor cells. Bioluminescence imaging is conducted using a cryogenically cooled IVIS 100 imaging system coupled to a data acquisition computer running Living Image software (Xenogen). The mice are sacrificed by carbon dioxide inhalation when evidence of advanced bulky disease is present. The day of sacrifice is considered the day of death for survival evaluation.
Three days after the orthotopic implantation of 1.0×10^6 COL0357FG tumor cells in 50 μL of HBSS, when bioluminescence imaging confirmed that tumors are well established, mice are randomly allocated into four groups to receive one of the following treatments: (a) Vehicle solution for 50 μL of sterile saline; (b) IIIg (400 mg/kg) once daily for 4 weeks [(QD5+R2)×4]; (c) oxaliplatin (10 mg/kg) biweekly for 4 weeks (ip); (d) combination of IIIg (400 mg/kg) once daily for 4 weeks [(QD5+R2)×4] with oxaliplatin (10 mg/kg biweekly, ip). […]

[2] = intraperitoneal injection, 200 mg/kg QW×4
[3] = oral, 400 mg/kg [QD5+R2]×4, compared to no treatment and standard gemcitabine treatment

Compound: O=c1ccc2c(I)c([N+](=O)[O-])ccc2o1 [IIIg, 5-iodo-6-nitro-benzopyrone]
- IC50 ([1]; Homo sapiens, Pancreatic cancer cell, IIIg alone, range over eight PC cell lines, read-out: IC50 (growth of eight PC cell lines)): 5 to 10 µM
- Potentiation of oxaliplatin cytotoxicity ([1]; different pancreatic cancer cell models): potentiates oxaliplatin cytotoxicity
- Signs of toxicity (Colo357FG; 100 mg/kg/day 2/week×4 weeks): without signs of toxicity
- Survival (Colo357FG; 100 mg/kg/day 2/week×4 weeks): prolongs survival
- Tumor burden (Colo357FG; 100 mg/kg/day 2/week×4 weeks): significantly reduces the tumor burden
- In vivo antitumor effect, comparison of schedules (Colo357FG; 200 mg/kg/week once a week in comparison with 2 times/week or daily schedule, preliminary results): greater in vivo antitumor effect
- Anti-tumor activity of the combination (Colo357FG; IIIg 400 mg/kg once daily [(QD5+R2)×4] with oxaliplatin 10 mg/kg biweekly, ip): potent synergistic anti-tumor activity
- Survival (Colo357FG; [2]): prolongs the survival
- Tumor burden (Colo357FG; [2]): potently reduces the tumor burden
- Survival (Colo357FG; [3]): prolongs survival
- Tumor burden (Colo357FG; [3]): significantly reduces the tumor burden
